The values below come from US20230013304A1, “N2-ARYLMETHYL-4-HALOALKYL-PYRIDAZIN-3-ONE CFTR MODULATORS FOR THE TREATMENT OF CYSTIC FIBROSIS” (UNIVERSITE DE REIMS CHAMPAGNE-ARDENNE, priority 2019, published 2023).

This experiment deals with CFTR channel. The experiment in a line: CFTR-dependent halide transport, YFP-H148Q/I152L fluorescent probe (Premo Halide Sensor kit) in osteoblasts. In kind it is cell-based. Conditions: for restoration of the CFTR channel activity: on average, compared with reference substances (Ivacaftor, Lumacaftor, Orkambi). How it is done:
To evaluate the action of the compounds according to the invention on the restoration of CFTR activity, said compounds were tested in vitro using a suitable Premo Halid Sensor kit (Invitrogen).
The transport of CFTR-dependant chloride ions is thus first evaluated in osteoblasts with the use of a fluorescent probe (halide-sensitive yellow fluorescent protein (YFP)-H148Q/I152 L protein (Life Technologies, Saint Aubin, France)) (FIG. 1).
48 h after transfection of the probe into the cell, CFTR channel activity is stimulated using a solution composed of forskolin, 3-isobutyl-1-methylxanthine and apigenine (each component in a concentration of 10 μM). An iodine solution (140 mM) was then added and the fluorescence was recorded using a plate reader (400 ms/point; Ft) over a period of 60 s (baseline; F0). The decrease in the Ft/F0 ratio represents the restoration of chloride activity of the CFTR channel.
For quantitative analyses, the gradients of the signals obtained are processed in non-linear regressions and correlated to the level of conductance of chloride ions.

Consider `COc1ccc(-c2cc(C(F)(F)F)c(=O)n(Cc3ccccc3)n2)cc1OC` [Compound 1, 2-benzyl-6-(3,4-dimethoxyphenyl)-4-(trifluoromethyl)pyridazin-3(2H)-one], for which, where the note is “osteoblasts, FIG. 1”, the “restoration of CFTR channel activity compared with Ivacaftor and Lumacaftor” value was “better restoration of CFTR channel activity than those obtained with Ivacaftor and Lumacaftor”; the “restoration of CFTR channel activity compared with Orkambi” value is “restoration of CFTR channel activity similar to that obtained with Orkambi”; the “restoration of the CFTR channel activity” value stood at 150%.

CFTRinh-172 [reference compound]: under “CFTRinh-172 10 μM, untreated osteoblasts, control”, the “decrease in fluorescence (Ft/F0) in the presence of the inhibitor” value is “no decrease in fluorescence was observed”.

`COc1ccc(Cn2nc(-c3ccc(OC(F)F)c(OC)c3)cc(C(F)(F)F)c2=O)cc1` [Compound 4, 6-(4-(difluoromethoxy)-3-methoxyphenyl)-2-(4-methoxybenzyl)-4-(trifluoromethyl)pyridazin-3(2H)-one]: where the note is “osteoblasts, FIG. 1”, the “restoration of CFTR channel activity compared with Ivacaftor and Lumacaftor” value was “better restoration of CFTR channel activity than those obtained with Ivacaftor and Lumacaftor”; the “restoration of the CFTR channel activity” value turned out to be 150%.
